Where a SMILES comes first, the peptide text is derived from it. Bridges are numbered along the chain shown (N, C = ends). [ ]: non-standard residue; d: D form. The star is where a group is joined. hPhe(3,5-F2-4-CF3) = N[C@@H](CCc1cc(F)c(C(F)(F)F)c(F)c1)C(=O)O; hPhe(3-Cl-4-CF3) = N[C@@H](CCc1ccc(C(F)(F)F)c(Cl)c1)C(=O)O; NPrPhe(4-CF3) = CCCN[C@@H](Cc1ccc(C(F)(F)F)cc1)C(=O)O; NEtPhe(4-CF3) = CCN[C@@H](Cc1ccc(C(F)(F)F)cc1)C(=O)O; Abu(4,4,4-F3) = N[C@@H](CC(F)(F)F)C(=O)O; NMeGly(cPent) = CN[C@H](C(=O)O)C1CCCC1; αMeI = CC[C@H](C)[C@](C)(N)C(=O)O; NMeF = CN[C@@H](Cc1ccccc1)C(=O)O; NMeD = CN[C@@H](CC(=O)O)C(=O)O; NMeL = CN[C@@H](CC(C)C)C(=O)O; αMeS = C[C@](N)(CO)C(=O)O; Ac6c = NC1(C(=O)O)CCCCC1; Morpholide = C1CN(*)CCO1; NMeA = CN[C@@H](C)C(=O)O; Ac5c = NC1(C(=O)O)CCCC1; Aze = O=C(O)[C@@H]1CCN1; Sar = CNCC(=O)O; Allyl = C=CC*
What was measured:
[1] = molecular target: GDP-bound NRAS wild-type protein (Homo sapiens, UniProt P01111); test: Binding to NRAS by surface plasmon resonance (SPR), Single Cycle Kinetics
Sequence of GDP-bound NRAS wild-type protein (P01111 whole entry): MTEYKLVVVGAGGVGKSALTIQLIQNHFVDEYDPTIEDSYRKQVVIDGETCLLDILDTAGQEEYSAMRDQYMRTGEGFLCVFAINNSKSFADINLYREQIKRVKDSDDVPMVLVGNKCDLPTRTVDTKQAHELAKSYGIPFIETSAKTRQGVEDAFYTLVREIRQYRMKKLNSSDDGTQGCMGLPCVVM

[2] = molecular target: GDP-bound HRAS wild-type protein (Homo sapiens, UniProt P01112); test: Binding to HRAS by surface plasmon resonance (SPR), Single Cycle Kinetics
Sequence of GDP-bound HRAS wild-type protein (P01112 whole entry): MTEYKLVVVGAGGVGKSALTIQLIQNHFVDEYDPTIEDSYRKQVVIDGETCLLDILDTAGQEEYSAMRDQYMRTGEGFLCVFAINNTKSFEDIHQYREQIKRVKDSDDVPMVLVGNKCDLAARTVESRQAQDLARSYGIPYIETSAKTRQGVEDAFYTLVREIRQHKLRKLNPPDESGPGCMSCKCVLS

[3] = SPR, GDP-bound wild-type proteins

| Structure (SMILES) | NRAS/KRAS (ratio of KD for GDP-bound NRAS wild-type to KD for KRAS) ([1]; SPR) | HRAS/KRAS (ratio of KD for GDP-bound HRAS wild-type to KD for KRAS) ([2]; SPR) | NRAS/KRAS (ratio of KD value with respect to GDP-bound NRAS wild-type protein to KD value with respect to KRAS) ([1]; SPR) | HRAS/KRAS (ratio of KD value with respect to GDP-bound HRAS wild-type protein to KD value with respect to KRAS) ([2]; SPR) | further results |
| --- | --- | --- | --- | --- | --- |
| CC[C@H](C)[C@@H]1NC(=O)[C@H](CC(C)C)N(C)C(=O)C[C@@H](C(=O)N2CCOCC2)N(C)C(=O)[C@H](C2CCCC2)N(C)C(=O)C2(CCCC2)NC(=O)[C@@H]2CCCN2C(=O)[C@H](CCc2ccc(C(F)(F)F)c(Cl)c2)NC(=O)CN(C)C(=O)[C@H](Cc2ccccc2)N(C)C(=O)[C@@H]2CCN2C(=O)[C@H](C)N(C)C1=O [PP0011] ([NMeL]I[NMeA][Aze][NMeF][Sar][hPhe(3-Cl-4-CF3)]P[Ac5c][NMeGly(cPent)][NMeD]-Morpholide; lactam N-11) | C (A compound having a KD ratio of 0.1 or more and less than 3 is denoted as C) | C (A compound having a KD ratio of 0.1 or more and less than 3 is denoted as C) | – | – | – |
| CC[C@H](C)[C@@H]1NC(=O)[C@H](CC(C)C)N(C)C(=O)C[C@@H](C(=O)N2CCOCC2)N(C)C(=O)[C@H](C2CCCC2)N(C)C(=O)C2(CCCCC2)NC(=O)[C@@H]2CCCN2C(=O)[C@H](CCc2ccc(C(F)(F)F)c(Cl)c2)NC(=O)CN(C)C(=O)[C@H](Cc2ccc(C(F)(F)F)cc2)N(CC)C(=O)CN(C)C(=O)CN(C)C1=O [PP0236] ([NMeL]I[Sar][Sar][NEtPhe(4-CF3)][Sar][hPhe(3-Cl-4-CF3)]P[Ac6c][NMeGly(cPent)][NMeD]-Morpholide; lactam N-11) | B (a compound having 3 or more and less than 10 is denoted as B) | C (A compound having a KD ratio of 0.1 or more and less than 3 is denoted as C) | – | – | – |
| CC[C@H](C)[C@@H]1NC(=O)[C@H](CC(C)C)N(C)C(=O)C[C@@H](C(=O)N2CCOCC2)N(C)C(=O)[C@H](C2CCCC2)N(C)C(=O)C2(CCCC2)NC(=O)[C@@H]2CCCN2C(=O)[C@H](CCc2ccc(C(F)(F)F)c(Cl)c2)NC(=O)CN(C)C(=O)[C@H](Cc2ccc(OC)cc2)N2CCCCC[C@@H](C2=O)N(C)C(=O)CN(C)C1=O [PP0614] | – | – | B (a compound having 3 or more and less than 10 is denoted as B) | B (a compound having 3 or more and less than 10 is denoted as B) | – |
| CCO[C@@H]1C[C@H]2C(=O)NC3(CCC3)C(=O)N(C)[C@@H](C3CCCC3)C(=O)N(C)[C@H](C(=O)N3CCOCC3)CC(=O)N(C)[C@@H](CCOC)C(=O)N[C@@H]([C@@H](C)CC)C(=O)N(C)CC(=O)N(C)[C@H]3CCCCCN(C3=O)[C@@H](Cc3ccc(C(F)(F)F)cc3)C(=O)N(C)CC(=O)N[C@@H](CCc3cc(F)c(C(F)(F)F)c(F)c3)C(=O)N2C1 [PP0690] | – | – | B (a compound having 3 or more and less than 10 is denoted as B) | B (a compound having 3 or more and less than 10 is denoted as B) | – |
| CCCN1C(=O)CN(C)C(=O)[C@@H]2CCN2C(=O)[C@H]([C@@H](C)CC)NC(=O)[C@H](CC(C)C)N(C)C(=O)C[C@@H](C(=O)N2CCOCC2)N(C)C(=O)[C@H](C2CCCC2)N(C)C(=O)[C@](C)([C@@H](C)CC)NC(=O)[C@@H]2CCCN2C(=O)[C@H](CCc2cc(F)c(C(F)(F)F)c(F)c2)NC(=O)CN(C)C(=O)[C@@H]1Cc1ccc(C(F)(F)F)cc1 [PP0774] ([NMeL]I[Aze][Sar][NPrPhe(4-CF3)][Sar][hPhe(3,5-F2-4-CF3)]P[αMeI][NMeGly(cPent)][NMeD]-Morpholide; lactam N-11) | – | – | B (a compound having 3 or more and less than 10 is denoted as B) | B (a compound having 3 or more and less than 10 is denoted as B) | – |
| CCC[C@H]1C(=O)N[C@@H]([C@@H](C)CC)C(=O)N(C)CC(=O)N(C)[C@H]2C/C=C\CCN(C2=O)[C@@H](Cc2ccc(C)cc2)C(=O)N(C)CC(=O)N[C@@H](CCc2ccc(C(F)(F)F)c(Cl)c2)C(=O)N2C[C@H](C)C[C@H]2C(=O)NC2(CC(C)(C)C2)C(=O)N(C)[C@@H](C2CCCC2)C(=O)N(C)[C@H](C(=O)N(C)C)CC(=O)N1C [PP2210] | – | – | – | – | NRAS/KRAS (ratio of KD value with respect to NRAS to KD value with respect to KRAS) ([1]; SPR, GDP-bound NRAS wild-type vs GDP-bound KRAS wild-type): A (a compound having 10 or more and less than 20 is denoted as A); HRAS/KRAS (ratio of KD value with respect to HRAS to KD value with respect to KRAS) ([2]; SPR, GDP-bound HRAS wild-type vs GDP-bound KRAS wild-type): B (a compound having 3 or more and less than 10 is denoted as B) |
| CCO[C@@H]1C[C@H]2C(=O)NC3(CC(C)(C)C3)C(=O)N(C)[C@@H](C(CC)CC)C(=O)N(C)[C@H](C(=O)N(C)C)CC(=O)N(C)[C@H]3CCC/C=C/c4ccc(cc4)C[C@@H](C(=O)N(C)CC(=O)N[C@@H](CCc4cc(F)c(C(F)(F)F)c(F)c4)C(=O)N2C1)N1CC/C=C\C[C@@H](C1=O)N(C)C(=O)CN(C1CC1)C(=O)[C@H]([C@@H](C)CC)NC3=O [PP2955] | – | – | – | – | NRAS/KRAS (ratio of KD value with respect to GDP-bound NRAS wild-type protein to KD value with respect to KRAS) ([1]; class symbols): A (a compound having 10 or more and less than 20 is denoted as A); HRAS/KRAS (ratio of KD value with respect to GDP-bound HRAS wild-type protein to KD value with respect to KRAS) ([2]; class symbols): A (a compound having 10 or more and less than 20 is denoted as A) |
| C=CCOC[C@]1(C)NC(=O)[C@@H]2CCCN2C(=O)[C@H](CCc2cc(F)c(C(F)(F)F)c(F)c2)NC(=O)CN(C)C(=O)[C@H](Cc2ccc(C(F)(F)F)cc2)N(CCC)C(=O)CN(C)C(=O)CN(C)C(=O)[C@H]([C@@H](C)CC)NC(=O)[C@H](CC(C)C)N(C)C(=O)C[C@@H](C(=O)N2CCOCC2)N(C)C(=O)[C@H](C2CCCC2)N(C)C1=O [PP0763] ([NMeL]I[Sar][Sar][NPrPhe(4-CF3)][Sar][hPhe(3,5-F2-4-CF3)]P[αMeS](Allyl)[NMeGly(cPent)][NMeD]-Morpholide; lactam N-11) | – | – | B (a compound having 3 or more and less than 10 is denoted as B) | B (a compound having 3 or more and less than 10 is denoted as B) | – |
| CC[C@H](C)[C@@H]1NC(=O)[C@@H]2CCCc3ccc(cc3)C[C@@H](C(=O)N(C)CC(=O)N[C@@H](CCc3ccc(C(F)(F)F)c(OC)c3)C(=O)N3C[C@H](OC4CCCC4)C[C@H]3C(=O)NC3(CC(C)(C)C3)C(=O)N(C)[C@@H](C3CCCC3)C(=O)N(C)[C@H](C(=O)N(C)CC)CC(=O)N2C)N2CC/C=C\C[C@@H](C2=O)N(C)C(=O)CN(C)C1=O [PP3086] | – | – | – | – | NRAS/KRAS (ratio of KD value with respect to GDP-bound NRAS wild-type protein to KD value with respect to KRAS) [1, 3]: B (a compound having 3 or more and less than 10 is denoted as B); HRAS/KRAS (ratio of KD value with respect to GDP-bound HRAS wild-type protein to KD value with respect to KRAS) [2, 3]: B (a compound having 3 or more and less than 10 is denoted as B) |
| CCCN1C(=O)[C@@H]2CCN2C(=O)[C@H](C)N(C)C(=O)[C@H](CC(F)(F)F)NC(=O)[C@H](CC(C)C)N(C)C(=O)C[C@@H](C(=O)N2CCOCC2)N(C)C(=O)[C@H](C2CCCC2)N(C)C(=O)C2(CCCC2)NC(=O)[C@@H]2CCCN2C(=O)[C@H](CCc2ccc(C(F)(F)F)c(Cl)c2)NC(=O)CN(C)C(=O)[C@@H]1Cc1ccc(C(F)(F)F)cc1 [PP0270] ([NMeL][Abu(4,4,4-F3)][NMeA][Aze][NPrPhe(4-CF3)][Sar][hPhe(3-Cl-4-CF3)]P[Ac5c][NMeGly(cPent)][NMeD]-Morpholide; lactam N-11) | C (A compound having a KD ratio of 0.1 or more and less than 3 is denoted as C) | B (a compound having 3 or more and less than 10 is denoted as B) | – | – | – |
